Results as given in US6589951B1, “Phthalazine derivatives as phosphodiesterase 4 inhibitors” (Zambon Group S.p.A., priority 1997, dated 2003).

Experiments:
[1] = system: TNFα; assay: TNFα synthesis inhibition in LPS-stimulated human monocytes (ELISA); assay type: cell-based; settings: Monocyte, LPS 1 ng/ml, 16 hours
Experimental: The monocytes were isolated from peripheral blood of healthy volunteers according the procedure of Schreek L., J. Natl. Cancer Inst., 1964, 32, 507. The monocytes and lymphocytes population was isolated by Ficoll gradient centrifugation, and the cells diluted at a density of 2.5×10^6 cells/ml in RPMI1640 incubation containing 1% inactivated bovine fetal serum, penicillin (100 U/ml) and streptomycin (100 U/ml) were placed in 24-wells plates (1 ml/well) and left to adhere for 1 hour at 37° C. with 5% CO2. At the end of the incubation the lymphocytes not adhering were removed by aspiration and the monocytes adhered to the plate were used in the next step.
The TNFα synthesis from human monocytes was measured according to the method of Barnette M. et al., Biochemical Pharmacology, 1996, 51, 949. The monocles were incubated for 1 hour with 1 ml of RPMI1640 incubation medium (1% inactivated bovine serum, 100 U/ml penicillin and streptomycin) containing different concentrations of the products according to the present invention or the carrier only for the controls. The TNFα synthesis from monocytes was induced by adding 1ng/ml of LPS (lipopolysaccharide of E. Coli) and after 16 hours of incubation at 37° C., 5% CO2, the incubation medium was removed, and the surnatant stored at −80° C. until the measurement. The TNFα levels were determined by ELISA test with an Amersham kit. The results are set forth in Table 2 as IC50 measured with the same calculation of example 67.

[2] = system: PDE 4; assay: PDE 4 enzyme inhibition test (SPA); assay type: biochemical, human; settings: for activity on PDE 4 (in words): summary statement in description
Experimental: The polymorphonucleate leukocytes (PMNs) were isolated from peripheral blood of healthy volunteers according to what described by Boyum A, Scand. J. Immunol., 1976, 5° suppl., 9). Shortly, the isolation of the PMNs was effected by Ficoll-Paque gradient centrifugation followed by sedimentation on dextrane and the erythrocyte contamination was eliminated by hypotonic lysis.
The human PMNs were resuspended in TRIS/HCl buffer (10 mM pH 7.8) containing MgCl2 (5mM), EGTA (4 mM), mercaptoethanol (5 mM), TRITON-X100 (1%), pepstatin A (1 μM), PMSF (100 μM) and leupeptin (1 μM), and homogenised by Polytron. The homogenate was centrifuged at 25,000×g for 30 minutes at 4° C. and the surnatant was used for the PDE 4 enzyme purification by ion exchange chromatography using the FPLC technique according to what described by Schudt C. et al., Naunyn-Schmidberg's Arch. Pharmacol., 1991, 334, 682. The surnatant was seeded on a UNO Q12 column (Bio-Rad) and the enzyme was eluted by sodium acetate gradient from 50mM to 1M. The fractions containing enzymatic activity were joined, dialysed against water and concentrated. The resulting PDE 4 enzyme was stored at −20° C. in the presence of ethylenglycole (30%) v/v) until use.
The enzyme activity was assessed with an Amersham kit based on the SPA technique (Scintillation Proximity Assay). The enzymatic reaction was effected in a total volume of 100 μl of TRIS/HCl buffer (50 mM, pH7.5), MgCl2 (8.3mM), EGTA (1.7 mM), cAMP (1μM) and [^3H]cAMP (˜100.000 dpm). The compounds of the invention and the reference ones were added at the wanted concentrations. As reference compounds 6,7 dimethoxy-4-(pyridin-4-ylmethyl)-2H-phthalazin-1 on (reference 1) and 6,7-dimethoxy-4-(piperidin-4-ylmethyl)-2H-phthalazin-1-one (reference 2) embraced by the general formula of the patent application EP-0 722 936 (in the name of Eisai) were used. The reaction was started by adding the enzyme (15 μg protein/ml) in 40 minutes at 30° C. and stopped with 50 μl of SPA particles suspension. The radioactivity of the particles was measured in β-emitting counter. The IC50 values were computed over 9 equidistant concentrations in logarithmic scale using a 4-parameters logistic function by a software.

[3] = target: T1, PDE 5 (Homo sapiens, UniProt O76074); assay: PDE 5 enzyme inhibition test (SPA); assay type: biochemical; settings: at 10^-6 M; enzyme from human platelets
T1 construct: Human platelets were prepared from platelet rich plasma (PRP); from tissue; host or cells: human platelets (platelet rich plasma, L. Sacco Hospital, Milan)
Experimental: (§1) Human platelets were prepared from platelet rich plasma (PRP) obtained from the Hematological Dept. of the “L.Sacco” Hospital of Milan. The PRP was centrifuged at 2,200 rpm for 15 minutes at 4° C. and the pellet was suspended in lysis solution (15 ml; 155 mM NH4Cl, 10 mM KHCO3 and 0.1 mM Na2EDTA, pH=7.4) and incubated for 10 minutes on ice-bath to remove the erythrocyte contamination. After a centrifuging at 1,400 rpm for 10 minutes at 4° C., platelets were suspended in 10 ml of […], 5 mM KCl, 1 mM MgSO4, 10 mM glucose, 10 mM HEPES and 0.05 U/ml of hirudin (pH=7.4), and stored at −20° C. until homogenization and chromatography.
(§2) Before the chromatographic step, platelets were thawed and 50 ml of 20 mM TRIS (pH=6.5) containing 5 mM βmercapto-ethanol, 2 mM EDTA, 50mM sodium acetate and 50 μM PMSF (homogenization buffer) were added. The platelet suspension was then homogenized by a Polytron homogenizer (Polytron PT 1200) for 20 seconds. The homogenate was centrifuged at 14,500 rpm for 20 minutes at 4° C., and the supernatant was applied to a UNO Q12 column (Bio-Rad) pre-equilibrated with the PMSF. A flow rate of 4.5 ml/min was used throughout the ion exchange chromatography procedure. The column was washed with PMSF (180 ml) and PDE 3 and PDE 5 were eluted by sodium acetate linear gradient from 0.05M to 1M. The fractions containing enzymatic activity were joined, dialysed against water and concentrated 10 times by ultrafiltration. The resulting solution was stored at −20° C. in the presence of ethylenglycole (30%) v/v) until use.
(§3) The enzyme activity was assessed with an Amersham kit based on the SPA technique (Scintillation Proximity Assay). The enzymatic reaction was effected in a total volume of 100 μl of TRIS/HCl buffer (50 mM, pH7.5), MgCl2 (8.3 mM), EGTA (1.7 mM), cAMP (for PDE 3 assay) or cGMP (for PDE 5 assay) (1 μM), [^3H]cAMP or [^3H]cGMP (10 μl), and 10 μl of the compounds of the invention. The reaction was started by adding the enzyme (10 μl) incubated for 40 minutes at 30° C. and stopped by adding 50 μl of SPA beads. The radioactivity due to the particles was measured in β-emitting counter. The results are expressed as percent activity versus the control present in each test.

[4] = target: T2, PDE 3 (Homo sapiens, UniProt Q14432); assay: PDE 3 enzyme inhibition test (SPA); assay type: biochemical; settings: at 10^-6 M; enzyme from human platelets
T2 construct: Human platelets were prepared from platelet rich plasma (PRP); from tissue; host or cells: human platelets (platelet rich plasma, L. Sacco Hospital, Milan)
T2 sequence (Q14432 whole entry): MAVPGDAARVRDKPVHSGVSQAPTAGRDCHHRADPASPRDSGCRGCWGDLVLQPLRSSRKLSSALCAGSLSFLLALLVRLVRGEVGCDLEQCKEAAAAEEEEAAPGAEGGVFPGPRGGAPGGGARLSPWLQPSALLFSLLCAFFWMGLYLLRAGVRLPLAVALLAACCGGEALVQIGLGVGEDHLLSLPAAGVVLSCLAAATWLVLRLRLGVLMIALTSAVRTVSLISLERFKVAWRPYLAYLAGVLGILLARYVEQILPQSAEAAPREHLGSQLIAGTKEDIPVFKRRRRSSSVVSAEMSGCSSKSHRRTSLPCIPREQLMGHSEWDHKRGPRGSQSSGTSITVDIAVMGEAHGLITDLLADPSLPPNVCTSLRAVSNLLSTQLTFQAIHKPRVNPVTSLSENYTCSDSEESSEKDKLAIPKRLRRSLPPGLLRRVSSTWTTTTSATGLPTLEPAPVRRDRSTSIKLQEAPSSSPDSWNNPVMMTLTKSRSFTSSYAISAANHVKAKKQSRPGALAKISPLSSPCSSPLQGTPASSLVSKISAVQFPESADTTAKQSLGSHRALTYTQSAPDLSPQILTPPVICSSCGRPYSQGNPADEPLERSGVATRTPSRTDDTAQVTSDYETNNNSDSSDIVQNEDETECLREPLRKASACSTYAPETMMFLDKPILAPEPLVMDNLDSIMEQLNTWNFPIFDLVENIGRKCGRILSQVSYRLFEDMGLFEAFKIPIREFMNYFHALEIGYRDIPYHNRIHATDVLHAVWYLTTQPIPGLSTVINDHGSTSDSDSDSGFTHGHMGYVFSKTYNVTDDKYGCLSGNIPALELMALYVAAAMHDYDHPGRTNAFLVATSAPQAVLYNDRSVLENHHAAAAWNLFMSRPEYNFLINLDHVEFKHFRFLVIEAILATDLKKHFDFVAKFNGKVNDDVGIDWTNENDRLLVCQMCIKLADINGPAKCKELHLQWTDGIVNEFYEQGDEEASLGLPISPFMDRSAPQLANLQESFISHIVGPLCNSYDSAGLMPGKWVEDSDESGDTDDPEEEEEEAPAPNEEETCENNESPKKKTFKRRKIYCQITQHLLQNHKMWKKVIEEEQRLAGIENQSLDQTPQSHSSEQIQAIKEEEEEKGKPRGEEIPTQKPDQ
Experimental: as §1, §2, §3

[5] = at 10^-6 M, enzyme from human PMNs
[6] = at 10^-8 M, enzyme from human PMNs
[7] = enzyme from human PMNs, 9 concentrations, 4-parameter logistic
[8] = at 10^-5 M, enzyme from human PMNs

Compound	IC50 [1]	PDE 4 % inhibition [2, 5]	PDE 4 % inhibition [2, 6]	IC50 [2, 7]	inhibition at 1 µM [3]	inhibition at 1 µM [4]	PDE 4 % inhibition [2, 8]	IC50 ([2]; reference compounds)	activity on PDE 4 (in words) [2]
COc1ccc2c(Cc3c(Cl)cncc3Cl)nncc2c1OC1CCCC1 [Compound 1, 5-Cyclopentyloxy-1-(3,5-dichloropyridin-4-ylmethyl)-6-methoxy-phthalazine]	254 ± 84 nM	84%	19%	53.1 ± 10 nM	20%	0%			
COc1ccc2c(Cc3c(Cl)cncc3Cl)n[n+]([O-])cc2c1OC1CCCC1 [Compound 2, 5-Cyclopentyloxy-1-(3,5-dichloropyridin-4-ylmethyl)-6-methoxy-phthalazin-3-oxide]	139 ± 55 nM	94%	25%	42.4 ± 5 nM	4%	20%	97%		
FC(F)Oc1ccc2c(Cc3c(Cl)cncc3Cl)nncc2c1OC1CCCC1 [Compound 3, 5-Cyclopentyloxy-1-(3,5-dichloropyridin-4-yl-methyl)-6-difluoromethoxy-phthalazine]	167 ± 79 nM	100%	34%	38.9 ± 7 nM	14%	5%			
COc1ccc2c(Nc3c(Cl)cncc3Cl)nncc2c1OC1CCCC1 [Compound 4, 5-Cyclopentyloxy-1-(3,5-dichloropyridin-4-ylamino)-6-methoxy-phthalazine]	187 ± 35 nM	73%		58.9 ± 5 nM	19%	8%			
COc1ccc2c(Cc3c(Cl)cncc3Cl)nncc2c1OC1Cc2ccccc2C1 [Compound 5, 1-(3,5-Dichloro-pyridin-4-methyl)5-(indan-2-yloxy)-6-methoxy-2H-phthalazine]	252 ± 120 nM	80%	33%	29.5 ± 4 nM					
COc1ccc2c(Cc3c(Cl)cncc3Cl)nncc2c1OCCCCCc1ccccc1 [Compound 6, 1-(3,5-Dichloro-pyridin-4-methyl)-5-(5-phenyl-pentyl-1-oxy)-6-methoxy-phthalazine]	83.5 ± 24 nM	79%	27%	56.8 ± 9 nM	20%	25%			
COc1cc2cnnc(Cc3c(Cl)cncc3Cl)c2cc1OC1CCCC1 [Compound 7, 7-Cyclopentyloxy-1-(3,5-dichloropyridin-4-ylmethyl)-6-methoxy-phthalazine]				186 ± 43 nM					
COc1cc2c(C)nnc(Cc3c(Cl)cncc3Cl)c2cc1OC1CCCC1 [Compound 9, 7-Cyclopentyloxy-1-(3,5-dichloro-pyridin-4-ylmethyl)-4-methyl-6-methoxy-phthalazine]				146 ± 38 nM					
CCc1nnc(Cc2c(Cl)cncc2Cl)c2cc(OC3CCCC3)c(OC)cc12 [Compound 10, 7-Cyclopentyloxy-1-(3,5-dichloro-pyridin-4-ylmethyl)-4-ethyl-6-methoxy-phthalazine]	259 ± 86 nM	80%	33%	74.9 ± 8 nM	20%	20%	93%		
COc1ccc2c(Cc3c(Cl)cncc3Cl)nncc2c1OC1CCOC1 (stereo not drawn) [Compound 13]				153 ± 85 nM	2%	4%			
COc1ccc2c(Cc3c(Cl)cncc3Cl)n[n+]([O-])cc2c1OC1CCOC1 (stereo not drawn) [Compound 14]	389 ± 47 nM			298 ± 37 nM					
FC(F)Oc1ccc2c(Cc3c(Cl)cncc3Cl)nncc2c1OC1CCOC1 (stereo not drawn) [Compound 15, 1-(3,5-Dichloro-pyridin-4-ylmethyl)-6-difluoromethoxy-5-(tetrahydro-furan-3-yloxy)-phthalazine]				282 ± 36 nM	0%	11%			
COc1ccc2c(Cc3c(Cl)c[n+]([O-])cc3Cl)n[n+]([O-])cc2c1OC1CCOC1 (stereo not drawn) [Compound 19]				206 ± 124 nM	8%				
COc1cc2c(Cc3ccncc3)n[nH]c(=O)c2cc1OC [Reference 1, 6,7-dimethoxy-4-(pyridin-4-yl-methyl)-2H-phthalazin-1-one, reference compound]								> 100000 nM	did not show to be active
COc1cc2c(CC3CCNCC3)n[nH]c(=O)c2cc1OC [Reference 2, 6,7-dimethoxy-4-(piperidin-4yl-methyl)-2H-phthalazin-1-one, reference compound]								> 100000 nM	did not show to be active
